Values of other authors in US6485736B1, “Variable release microcapsules” (priority 2000, dated 2002).

Conditions: water at 25° C.

## II
  solubility: 0.335 g in 1 dm^3 of water
